Results taken from patent US20110195950A1, “Organic Compounds” (NOVARTIS AG, priority 2007, published 2011).

How the values were obtained:
[1] = molecular target: T1, alpha2 subunit of the GABA-A receptor together with a beta and a gamma subunit (Homo sapiens, UniProt P47869); test: GABA-A receptor modulation, voltage-sensitive dye fluorescence assay (alpha2); format: cell-based; settings: transfected eukaryotic cell line; sub-maximal concentration of GABA; fluorescent signal of voltage-sensitive dye
T1 construct: expressed in transfected cells
T1 sequence (P47869 29-451): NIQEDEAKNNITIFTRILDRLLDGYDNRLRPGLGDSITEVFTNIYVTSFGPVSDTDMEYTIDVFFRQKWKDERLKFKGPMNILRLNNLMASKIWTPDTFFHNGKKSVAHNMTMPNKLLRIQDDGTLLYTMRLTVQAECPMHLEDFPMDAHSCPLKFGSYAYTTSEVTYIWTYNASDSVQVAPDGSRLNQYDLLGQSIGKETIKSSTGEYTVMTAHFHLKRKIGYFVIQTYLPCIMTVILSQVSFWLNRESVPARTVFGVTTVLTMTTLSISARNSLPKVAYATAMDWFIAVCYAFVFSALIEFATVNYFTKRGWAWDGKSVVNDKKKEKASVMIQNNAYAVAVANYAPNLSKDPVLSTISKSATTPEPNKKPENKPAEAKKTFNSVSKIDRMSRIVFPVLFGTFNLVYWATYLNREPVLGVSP
T1 sequence (P28472 26-473 partner): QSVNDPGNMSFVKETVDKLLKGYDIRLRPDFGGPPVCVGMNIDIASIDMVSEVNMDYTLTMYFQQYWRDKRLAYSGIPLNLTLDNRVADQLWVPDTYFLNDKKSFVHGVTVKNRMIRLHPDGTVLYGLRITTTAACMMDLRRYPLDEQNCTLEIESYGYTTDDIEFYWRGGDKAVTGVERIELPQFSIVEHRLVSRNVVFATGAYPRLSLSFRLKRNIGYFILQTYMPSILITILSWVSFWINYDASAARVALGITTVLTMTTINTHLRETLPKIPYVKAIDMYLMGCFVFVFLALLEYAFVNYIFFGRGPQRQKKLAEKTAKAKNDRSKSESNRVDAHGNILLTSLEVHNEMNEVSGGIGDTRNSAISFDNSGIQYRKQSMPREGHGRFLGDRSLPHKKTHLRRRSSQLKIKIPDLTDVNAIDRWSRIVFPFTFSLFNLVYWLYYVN
T1 sequence (P18507 40-467 partner limits assumed): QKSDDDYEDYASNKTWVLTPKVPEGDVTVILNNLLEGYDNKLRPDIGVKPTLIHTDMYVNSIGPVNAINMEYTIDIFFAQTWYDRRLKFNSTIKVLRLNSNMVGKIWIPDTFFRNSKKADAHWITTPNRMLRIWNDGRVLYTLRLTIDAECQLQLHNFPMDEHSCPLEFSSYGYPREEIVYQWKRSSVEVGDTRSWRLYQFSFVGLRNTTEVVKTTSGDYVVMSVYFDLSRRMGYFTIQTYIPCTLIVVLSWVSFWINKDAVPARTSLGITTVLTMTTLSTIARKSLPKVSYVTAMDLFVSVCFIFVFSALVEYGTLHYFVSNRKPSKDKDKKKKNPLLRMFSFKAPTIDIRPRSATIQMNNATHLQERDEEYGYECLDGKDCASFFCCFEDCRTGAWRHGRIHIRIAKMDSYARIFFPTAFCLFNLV
Excerpt: GABA-A receptor modulators show in functional assays a positive modulation of GABA-induced signals. This modulation can be determined in vitro, e.g., at recombinant GABA-A receptors expressed in a mammalian cell line, e.g. by measurement of GABA-A receptor induced changes of the trans-membrane voltage, when using a voltage-sensitive dye and a fluorescence detection system (Adkins, C. E., Pillai, G. V., Kerby, J., Bonnert, T. P., Haldon, C., Mckernan, R. M., Gonzalez, J. E., Oades, K., Whiting, P. J. & Simpson, P. B. [2001]. alpha4beta3delta GABA-A receptors characterized by fluorescence resonance energy transfer-derived measurements of membrane potential. J. Biol. Chem., 276, 38934-38939). In this assay, a modulator compound is pre-applied at different concentrations ranging from 0.1 nM to 10 μM to cells expressing GABA-A receptors and loaded with the voltage-sensitive dye, before, or at the same time as, a sub-maximal concentration of GABA (in the range of from 0.1 to 10 μM) is applied to the cells. The fluorescent signal is correlated with the degree of GABA-A receptor channel opening. This allows the quantification of effects induced by the modulator in a functional manner. By expression of different GABA-A receptor subunit combinations, the differential efficacy of a modulator at different GABA-A receptor variants can be tested. […]

[2] = molecular target: T2, alpha1 subunit of the GABA-A receptor together with a beta and a gamma subunit (Homo sapiens, UniProt P14867); test: GABA-A receptor modulation, voltage-sensitive dye fluorescence assay (alpha1); format: cell-based; settings: transfected eukaryotic cell line; sub-maximal concentration of GABA; fluorescent signal of voltage-sensitive dye
T2 construct: expressed in transfected cells
T2 sequence (P14867 28-456): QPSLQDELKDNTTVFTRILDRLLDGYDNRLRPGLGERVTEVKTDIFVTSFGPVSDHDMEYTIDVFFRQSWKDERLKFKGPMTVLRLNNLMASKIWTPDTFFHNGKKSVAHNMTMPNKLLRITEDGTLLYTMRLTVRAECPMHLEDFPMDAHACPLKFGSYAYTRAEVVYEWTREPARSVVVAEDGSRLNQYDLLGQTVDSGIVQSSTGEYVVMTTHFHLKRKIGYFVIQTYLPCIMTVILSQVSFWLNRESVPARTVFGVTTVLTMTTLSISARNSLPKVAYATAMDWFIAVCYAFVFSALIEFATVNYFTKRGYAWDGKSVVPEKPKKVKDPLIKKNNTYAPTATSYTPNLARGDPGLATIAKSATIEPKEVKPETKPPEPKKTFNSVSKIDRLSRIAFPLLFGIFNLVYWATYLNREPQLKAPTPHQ
T2 sequence (P47870 25-512 partner limits assumed): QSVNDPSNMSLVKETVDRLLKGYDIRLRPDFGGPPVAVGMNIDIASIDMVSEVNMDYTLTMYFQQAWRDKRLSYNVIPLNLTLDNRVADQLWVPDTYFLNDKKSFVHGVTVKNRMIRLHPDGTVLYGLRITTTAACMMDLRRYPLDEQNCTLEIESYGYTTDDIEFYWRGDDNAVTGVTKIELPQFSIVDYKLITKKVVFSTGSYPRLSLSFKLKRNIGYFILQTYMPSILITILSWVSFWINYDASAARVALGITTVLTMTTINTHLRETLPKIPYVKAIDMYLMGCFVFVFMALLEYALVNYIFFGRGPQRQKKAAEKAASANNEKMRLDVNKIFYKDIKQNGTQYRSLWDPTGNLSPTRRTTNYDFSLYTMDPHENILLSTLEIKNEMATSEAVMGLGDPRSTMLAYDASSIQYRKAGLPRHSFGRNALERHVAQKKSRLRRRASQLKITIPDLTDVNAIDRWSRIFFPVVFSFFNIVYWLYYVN
T2 sequence (P18507 40-467 partner limits assumed): T1 sequence (P18507 40-467 partner limits assumed)

modulation of the GABA-induced response, alpha2 subunit [1]: 140%
modulation of the GABA-induced response, alpha1 subunit [2]: 37%
Compound: Clc1ccc(-n2nc3c4c(ncc3c2OCc2ccccc2Cl)CCCC4)cc1 [Example 1, 3-(2-Chloro-benzyloxy)-2-(4-chloro-phenyl)-6,7,8,9-tetrahydro-2H-pyrazolo[4,3-c]quinoline]
